Key:
rat paw edema = test: Rat paw edema assay (carrageenan); format: in vivo, Male Sprague-Dawley rats; settings: po, 1 hr before subplantar carrageenan, paw volume at 3 hr, read-out: ED50 (edema inhibition in rat paw)
Experimental: Male Sprague-Dawley rats (150-200 g) were fasted overnight and were given, po, either vehicle (1% methocel or 5% Tween 80), or a test compound. One hr later, a line was drawn using a permanent marker at the level above the ankle in one hind paw to define the area of the paw to be monitored. The paw volume (V0) was measured using a plethysmometer (Ugo-Basile, Italy) based on the principle of water displacement. The animals were then injected subplantarly with 50 μl of 1% carrageenan solution in saline (FMC Corp, Maine) into the paw using an insulin syringe with a 25-gauge needle (i.e., 500 μg carrageenan per paw). Three hr later, the paw volume (V3) was measured and the increases in paw volume (V3 -V0) were calculated. The animals were sacrificed by CO2 asphyxiation and the absence or presence of stomach lesions scored. Data were compared with the vehicle-control values and percent inhibition calculated. ED50 values were used for comparison. All treatment groups were coded to eliminate observer bias.

COX-1 = target: T1, COX-1 (Homo sapiens, UniProt P23219); test: Human whole blood assay, COX-1 (clotting-induced TxB2 production); format: cell-based; settings: 1 hour at 37° C
T1 construct: platelets in whole blood contain a large amount of the COX-1 enzyme; endogenous in cells; host or cells: platelets in fresh human whole blood
Experimental: (§1) As well, platelets in whole blood contain a large amount of the COX-1 enzyme. Immediately following blood clotting, platelets are activated through a thrombin-mediated mechanism. This reaction results in the production of thromboxane B2 (TxB2) via activation of COX-1.
Aliquots of 500 μL were immediately transferred to siliconized microcentrifuge tubes preloaded with 2 μL of either DMSO or a test compound at final concentrations varying from 10 nM to 30 μM.
(§2) In the assay, inhibition is determined by measuring the amount of prostaglandin E2 (PGE2) synthesized in the presence of arachidonic acid, COX-1 or COX-2 and a putative inhibitor.

COX-2 = target: T2, COX-2 (Homo sapiens, UniProt P35354); test: Human whole blood assay, COX-2 (LPS-induced PGE2 production); format: cell-based; settings: 24 hours at 37° C
T2 construct: incubation of human whole blood with LPS which induces COX-2; endogenous in cells; host or cells: LPS-stimulated fresh human whole blood (blood cells not specified)
T2 sequence (P35354 18-604): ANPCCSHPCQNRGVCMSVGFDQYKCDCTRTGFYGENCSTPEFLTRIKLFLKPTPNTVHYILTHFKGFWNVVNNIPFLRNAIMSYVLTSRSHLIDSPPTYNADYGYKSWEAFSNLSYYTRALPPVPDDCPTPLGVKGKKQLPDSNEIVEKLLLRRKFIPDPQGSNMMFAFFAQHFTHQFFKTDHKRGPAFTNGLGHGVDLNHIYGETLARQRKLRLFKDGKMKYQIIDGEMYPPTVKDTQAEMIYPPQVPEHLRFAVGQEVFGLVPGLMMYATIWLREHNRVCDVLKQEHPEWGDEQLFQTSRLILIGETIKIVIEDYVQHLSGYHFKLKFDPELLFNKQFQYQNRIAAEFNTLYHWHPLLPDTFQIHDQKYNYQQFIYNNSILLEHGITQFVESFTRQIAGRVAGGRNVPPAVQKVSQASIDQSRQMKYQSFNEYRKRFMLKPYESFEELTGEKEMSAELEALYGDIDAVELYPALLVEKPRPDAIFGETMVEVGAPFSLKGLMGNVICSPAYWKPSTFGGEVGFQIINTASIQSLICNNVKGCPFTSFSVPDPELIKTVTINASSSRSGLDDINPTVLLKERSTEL
Text: as §1
Fresh blood was collected in heparinized tubes by venipuncture from both male and female volunteers. The subjects had no apparent inflammatory conditions and had not taken any NSAIDs for at least 7 days prior to blood collection. Plasma was immediately obtained from a 2 mL blood aliquot to use as blank (basal levels of PGE2).
as §2

T1 sequence (P23219 24-599): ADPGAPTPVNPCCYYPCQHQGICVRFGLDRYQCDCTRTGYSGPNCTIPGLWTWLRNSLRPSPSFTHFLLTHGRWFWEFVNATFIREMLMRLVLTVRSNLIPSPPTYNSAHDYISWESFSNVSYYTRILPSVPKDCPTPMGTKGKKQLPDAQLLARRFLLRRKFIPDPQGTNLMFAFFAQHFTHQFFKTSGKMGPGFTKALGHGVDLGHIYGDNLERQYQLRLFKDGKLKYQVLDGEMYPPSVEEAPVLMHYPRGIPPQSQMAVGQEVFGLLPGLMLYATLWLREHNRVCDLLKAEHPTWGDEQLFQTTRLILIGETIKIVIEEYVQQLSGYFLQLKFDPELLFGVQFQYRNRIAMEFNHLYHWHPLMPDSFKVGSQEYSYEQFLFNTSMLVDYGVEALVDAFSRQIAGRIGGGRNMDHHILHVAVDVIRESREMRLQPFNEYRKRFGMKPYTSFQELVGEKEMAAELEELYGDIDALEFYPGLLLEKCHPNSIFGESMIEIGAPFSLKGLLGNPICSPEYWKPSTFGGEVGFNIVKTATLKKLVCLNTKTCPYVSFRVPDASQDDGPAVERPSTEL

COc1ccc2c(c1)c(CC(=O)O)c(C)n2C(=O)c1ccc(Cl)cc1 [Indomethacin, indomethacin, reference compound]
ED50 (rat paw edema): 2 mg/kg

CS(=O)(=O)c1ccc(-c2snnc2-c2cccc(F)c2)cc1 [Example 3]
IC50 (COX-1): 63 µM
IC50 (COX-2): 1.3 µM

CS(=O)(=O)c1ccc(-c2snnc2-c2ccc(F)cc2)cc1 [Example 2]
IC50 (COX-1): 20 µM
IC50 (COX-2): 2.8 µM
ED50 (rat paw edema): 0.5 mg/kg
